{
  "source": "ChEMBL document CHEMBL1240397",
  "about": "“Amodiaquine dosage and tolerability for intermittent preventive treatment to prevent malaria in children” (Antimicrob Agents Chemother, 2010)",
  "type_in_all_cases": "organism-based",
  "conditions_in_all_cases": "in vivo, po",
  "key": {"[1]": {"test_system": "Homo sapiens", "test": "Toxicity in children with malaria assessed as febrile incidence at 15-17 mg/kg/day, perorally and co-treated with sulfadoxine and pyrimethamine during intermittent preventive treatment to prevent malaria in children regimen"}, "[2]": {"test_system": "Homo sapiens", "test": "Toxicity in children with malaria under 2 years of age assessed as incidence of headache administered with 250 mg sulfalene/12.5 mg pyrimethamine on first day followed by compound treatment at <=15 mg/kg/day, perorally"}, "[3]": {"test_system": "Homo sapiens", "test": "Toxicity in children with malaria under 2 years of age assessed as incidence of rashes administered with 250 mg sulfalene/12.5 mg pyrimethamine on first day followed by compound treatment at <=15 mg/kg/day, perorally"}, "[4]": {"test_system": "Homo sapiens", "test": "Toxicity in children with malaria under 2 years of age assessed as incidence of itching administered with 250 mg sulfalene/12.5 mg pyrimethamine on first day followed by compound treatment at <=15 mg/kg/day, perorally"}, "[5]": {"test_system": "Homo sapiens", "test": "Toxicity in children with malaria over 2 years of age assessed as incidence of itching at >=15 mg/kg/day, perorally co-treated with 500 mg sulfalene/25 mg pyrimethamine"}, "[6]": {"test_system": "Homo sapiens", "test": "Toxicity in children with malaria assessed as incidence of rashes at <15 mg/kg/day, perorally and co-treated with sulfadoxine and pyrimethamine during intermittent preventive treatment to prevent malaria in children regimen"}, "[7]": {"test_system": "Homo sapiens", "test": "Toxicity in children with malaria over 2 years of age assessed as incidence of rashes at >=15 mg/kg/day, perorally co-treated with 500 mg sulfalene/25 mg pyrimethamine"}, "[8]": {"test_system": "Homo sapiens", "test": "Toxicity in children with malaria assessed as febrile incidence at <15 mg/kg/day, perorally and co-treated with sulfadoxine and pyrimethamine during intermittent preventive treatment to prevent malaria in children regimen"}, "[9]": {"test_system": "Homo sapiens", "test": "Toxicity in children with malaria under 2 years of age assessed as incidence of fever administered with 250 mg sulfalene/12.5 mg pyrimethamine on first day followed by compound treatment at <=15 mg/kg/day, perorally"}, "[10]": {"test_system": "Homo sapiens", "test": "Toxicity in children with malaria over 2 years of age assessed as incidence of fever at >=15 mg/kg/day, perorally co-treated with 500 mg sulfalene/25 mg pyrimethamine"}, "[11]": {"test_system": "Homo sapiens", "test": "Toxicity in children with malaria assessed as incidence of vomiting at <15 mg/kg/day, perorally and co-treated with sulfadoxine and pyrimethamine during intermittent preventive treatment to prevent malaria in children regimen"}, "[12]": {"test_system": "Homo sapiens", "test": "Toxicity in children with malaria assessed as incidence of vomiting at 15-17 mg/kg/day, perorally and cotreated with Sulfadoxine and pyrimethamine during intermittent preventive treatment to prevent malaria in children regimen"}, "[13]": {"test_system": "Homo sapiens", "test": "Toxicity in children with malaria assessed as incidence of rashes at >19 mg/kg/day, perorally and co-treated with sulfadoxine and pyrimethamine during intermittent preventive treatment to prevent malaria in children regimen"}, "[14]": {"test_system": "Homo sapiens", "test": "Toxicity in children with malaria under 2 years of age assessed as incidence of vomiting administered with 250 mg sulfalene/12.5 mg pyrimethamine on first day followed by compound treatment at <=15 mg/kg/day, perorally"}, "[15]": {"test_system": "Homo sapiens", "test": "Toxicity in children with malaria over 2 years of age assessed as incidence of headache at >=15 mg/kg/day, perorally co-treated with 500 mg sulfalene/25 mg pyrimethamine"}, "[16]": {"test_system": "Homo sapiens", "test": "Toxicity in children with malaria assessed as febrile incidence at 17-19 mg/kg/day, perorally and cotreated with Sulfadoxine and pyrimethamine during intermittent preventive treatment to prevent malaria in children regimen"}, "[17]": {"test_system": "Homo sapiens", "test": "Toxicity in children with malaria over 2 years of age assessed as incidence of vomiting at >=15 mg/kg/day, perorally co-treated with 500 mg sulfalene/25 mg pyrimethamine"}, "[18]": {"test_system": "Homo sapiens", "test": "Toxicity in children with malaria assessed as incidence of rashes at 15-17 mg/kg/day, perorally and co-treated with sulfadoxine and pyrimethamine during intermittent preventive treatment to prevent malaria in children regimen"}, "[19]": {"test_system": "Homo sapiens", "test": "Toxicity in children with malaria assessed as incidence of rashes at 17-19 mg/kg/day, perorally and cotreated with Sulfadoxine and pyrimethamine during intermittent preventive treatment to prevent malaria in children regimen"}, "[20]": {"test_system": "Homo sapiens", "test": "Toxicity in children with malaria assessed as febrile incidence at >19 mg/kg/day, perorally and co-treated with sulfadoxine and pyrimethamine during intermittent preventive treatment to prevent malaria in children regimen"}},
  "data": [
    {"smiles": "CCN(CC)Cc1cc(Nc2ccnc3cc(Cl)ccc23)ccc1O.Cl", "values": [
      {"measurement": "Activity", "setting": "[1]", "result": 10.7, "unit": "%"},
      {"measurement": "Activity", "setting": "[2]", "result": 9.6, "unit": "%"},
      {"measurement": "Activity", "setting": "[3]", "result": 1.9, "unit": "%"},
      {"measurement": "Activity", "setting": "[4]", "result": 1.9, "unit": "%"},
      {"measurement": "Activity", "setting": "[5]", "result": 3.8, "unit": "%"},
      {"measurement": "Activity", "setting": "[6]", "result": 0.8, "unit": "%"},
      {"measurement": "Activity", "setting": "[7]", "result": 1.9, "unit": "%"},
      {"measurement": "Activity", "setting": "[8]", "result": 6.3, "unit": "%"},
      {"measurement": "Activity", "setting": "[9]", "result": 26.4, "unit": "%"},
      {"measurement": "Activity", "setting": "[10]", "result": 29.8, "unit": "%"},
      {"measurement": "Activity", "setting": "[11]", "result": 7, "unit": "%"},
      {"measurement": "Activity", "setting": "[12]", "result": 9.2, "unit": "%"},
      {"measurement": "Activity", "setting": "[13]", "result": 2.2, "unit": "%"},
      {"measurement": "Activity", "setting": "[14]", "result": 26.4, "unit": "%"},
      {"measurement": "Activity", "setting": "[15]", "result": 5.8, "unit": "%"},
      {"measurement": "Activity", "setting": "[16]", "result": 9.9, "unit": "%"},
      {"measurement": "Activity", "setting": "[17]", "result": 41.3, "unit": "%"},
      {"measurement": "Activity", "setting": "[18]", "result": 0, "unit": "%"},
      {"measurement": "Activity", "setting": "[19]", "result": 0.8, "unit": "%"},
      {"measurement": "Activity", "setting": "[20]", "result": 21.7, "unit": "%"}
    ]}
  ]
}
